Data from patent publication US9326972B2, “Use of phenylmethimazoles, methimazole derivatives, and tautomeric cyclic thiones for the treatment of autoimmune/inflammatory diseases associated with toll-like receptor overexpression” (Ohio University, priority 2004, dated 2016).
Like-named read-outs stand apart in the source and are kept apart here. Each block holds one compound with its values, some of them ahead of it.

Legend:
FRTL-5 cells = test: Effect of 2-aminopurine (PKR inhibitor) in dsRNA-transfected FRTL-5 cells; format: cell-based, rat; details: FRTL-5, 10 mM 2-AP
Description: FIG. 2. […] After total RNA purification, 20 μg of total RNA were analyzed with indicated radiolabeled cDNA probes. […] Cells were transfected Lipofectamine 2000 alone (L) or with the indicated amount of Poly (I:C) (RNA) or endotoxin-free E. coli DNA. After 12 and 24 hours, 20 μg of total RNA was analyzed with the indicated radiolabeled cDNA probes. […] In (C), the effect of 2-aminopurine (a PKR inhibitor) on transfected dsRNA-induced TLR3 mRNA levels was measured. Again cells were transfected with Lipofectamine 2000 alone or Lipofectamine with the indicated amount of Poly (I:C) or endotoxin-free E. coli DNA in the presence or absence of 10 mM 2-aminopurine. After the indicated incubation time, cells were harvested and 20 μg of total RNA was analyzed with the indicated radiolabeled cDNA probes. […] Data are representative of multiple experiments. In sum, dsRNA transfection is needed to increase gene expression of signals implicated in autoimmune-inflammatory diseases such as MHC genes and high levels of Type I interferons, not simply activation of TLR by incubating thyrocytes with dsRNA by dsRNA binding to TLR3 receptors. Moreover, despite increased PKR, the critical signal involved in TLR3/Type I IFN signaling by dsRNA transfection is not PKR mediated. […]

C57BL/6J mice = test: LPS-induced endotoxic shock in C57BL/6J mice: survival and signs of shock; format: in vivo, mouse; details: for Signs of shock at 12 hours, % of Animals: LPS-challenged mice
[1] = system: TLR3, MHC Class I, PKR, IP-10 mRNA in FRTL-5 cells; details: FRTL-5, 100 U/ml IFN
ERK1/2 MAPK, ELK1 = test: ERK1/2 MAPK phosphorylation and Elk1 transactivation in FRTL-5 thyrocytes; format: cell-based, rat; details: FRTL-5, pCMV-BD-Elk 1 and pFR-luc, 6 hrs
Description: Poly (I:C) (the dsRNA ligand commonly used as a test compound) activates the TLR3 mediated NF-κ β/Map kinase signal pathway in FRTL-5 thyrocytes. FRTL-5 cells were transiently transfected with 100 ng of luciferase reporter pNF-κB Luc and 2 ng of internal control phRL-Tk. After 36 h, cells were incubated with 100 μg/ml poly (I:C) or endotoxin-free E. coli DNA for 6 h. Measurements were made with the Dual Luciferase Assay System (Promega). Poly (I:C) increased TLR3 mediated NF-κB mediated luciferase activity (gene expression) 6 fold; dsDNA had no effect. Further support came from electrophoretic mobility shift analyses (EMSA). When FRTL-5 thyrocytes were incubated with 100 μg/ml poly (I:C), IL-1β, TNF-α or TPA, cells lysed after 1 h, and nuclear translocation of NF-κB measured. The poly (I:C) induced p50/p65 complex formation as measured by the presence of a specific new protein/DNA complex and its inhibition by anti-p50 and p65 antibodies, but not by anti-p52, c-rel and Rel B antibodies; the complex was also supershifted by anti-p50. […] Additionally, when FRTL-5 cells were co-transfected with pCMV-BD-Elk 1 and pFR-luc, then incubated with 100 μg/ml poly (I:C) or IL-1β for 6 hrs, ELK1 transactivation was increased 2-fold by both Poly (I:C) and IL-1β when measured with the Dual Luciferase Assay System (Promega). […]

NF-κB = NF-κB Luc reporter gene in FRTL-5 thyrocytes; format: cell-based, rat; details: FRTL-5, pNF-κB Luc, 100 μg/ml, 6 h
Description: Poly (I:C) (the dsRNA ligand commonly used as a test compound) activates the TLR3 mediated NF-κ β/Map kinase signal pathway in FRTL-5 thyrocytes. FRTL-5 cells were transiently transfected with 100 ng of luciferase reporter pNF-κB Luc and 2 ng of internal control phRL-Tk. After 36 h, cells were incubated with 100 μg/ml poly (I:C) or endotoxin-free E. coli DNA for 6 h. Measurements were made with the Dual Luciferase Assay System (Promega). Poly (I:C) increased TLR3 mediated NF-κB mediated luciferase activity (gene expression) 6 fold; dsDNA had no effect. Further support came from electrophoretic mobility shift analyses (EMSA). When FRTL-5 thyrocytes were incubated with 100 μg/ml poly (I:C), IL-1β, TNF-α or TPA, cells lysed after 1 h, and nuclear translocation of NF-κB measured. The poly (I:C) induced p50/p65 complex formation as measured by the presence of a specific new protein/DNA complex and its inhibition by anti-p50 and p65 antibodies, but not by anti-p52, c-rel and Rel B antibodies; the complex was also supershifted by anti-p50. […] Additionally, when FRTL-5 cells were co-transfected with pCMV-BD-Elk 1 and pFR-luc, then incubated with 100 μg/ml poly (I:C) or IL-1β for 6 hrs, ELK1 transactivation was increased 2-fold by both Poly (I:C) and IL-1β when measured with the Dual Luciferase Assay System (Promega). NF-κB/MAP Kinase signals evoked by TLR3 binding dsRNA are only one portion of TLR3 functional expression.
Cells were co-transfected with ISRE-Luc and pRLTk-Int and then treated without (none) or with Poly I:C (100 μg/ml), LPS (100 ng/ml), IL-1β (10 ng/ml) TNF-α (25 ng/ml), IFN-β (100 U/ml) or IFN-γ (1000 U/ml) in the presence of DMSO (−) or C10 for 6 hours. Data were obtained using the Dual Luciferase Assay system. The effect on the ISRE element is not duplicated by an NF-κB reporter plasmid despite the similarity of the two elements: ([…])5 (SEQ ID NO:3) vs. ([…])5 (SEQ ID NO:4), respectively. Data are representative of multiple experiments.
Plasmids for Reporter Gene Assays. Human IRF-3 was amplified from human cDNA and cloned into pCR 2.1 by the TOPO/TA (Invitrogen, Carlsbad, Calif.) cloning method, and then sequenced. IRF-3 was then excised by EcoRI digestion and subcloned into pCMV-BD (Stratagene, La Jolla, Calif.) for use in transactivation assays. To construct IFN-β-luc the human IFN-β promoter sequence was amplified from human genomic DNA (Clontech, Palo Alto, Calif.)) using Ex Taq™ Polymerase (Takara, Madison, Wis.). The PCR fragment contained human IFN-β promoter sequence from −125 to +34 relative to the transcription start site (+1) and incorporated KpnI and XhoI restriction sites at the 5′ and 3′ ends, respectively. The primers were as follows: hIFN-β (−125) KpnI (5′-[…]-3′) (SEQ ID NO:9) and hIFN-β (+34) XhoI (5′-[…]-3′). (SEQ ID NO: 10) The fragment was digested with KpnI and XhoI then ligated into a similarly digested pGL3 Basic (Promega, Madison, Wis.) vector. The human MyD88 wild and dominant negative expression vectors were kindly donated by Dr. P. E. Auron. pFR-luc (5×Gal4 DNA binding domains and minimal TATA box), ISRE-Luc, NF-κB-luc and the Elk1 trans-Reporting System were purchased from Stratagene. pRL TK-Int was purchased from Promega.
Transient Expression Analysis. A DEAE procedure was used to transfect promoter-luciferase gene constructs and expression plasmids into FRTL-5 cells. Briefly, FRTL-5 cells were grown in 24-well plates to about 70% confluence, washed with 0.5 ml of serum-free culture medium (6H0 medium), then exposed to 125 μl of premade plasmid-DEAE mixture per well for 15 min at room temperature. The plasmid-DEAE mixture was prepared by incubating 100 ng of plasmid DNA, unless otherwise noted in individual experiments, with 3.125 μl of DEAE-Dextran (10 mg/ml) (Promega, Madison Wis.). FRTL-5 cells were incubated with this mixture for 2 hr at 37° C. in a CO2 incubator, before 2 ml of 6H5 medium was added. […]

[2] = LPS 20 mg/kg i/p, drug i/p 30 min before LPS, 8 mice per group
[3] = challenged with LPS first, treated after 12 hours when shock had appeared

Compound: Nc1ncc2[nH]cnc2n1 [Compound 2-AP, 2-aminopurine]
dsRNA-transfection-increased NF-κB p65/p50 complex formation (EMSA) (FRTL-5 cells): strongly inhibited
dsRNA-transfection-induced increase in IFN-β mRNA levels (FRTL-5 cells): did not inhibit

Compound: CNC[C@H](O)[C@@H](O)[C@H](O)[C@H](O)CO.Cc1c(Nc2ncccc2C(=O)O)cccc1C(F)(F)F [flunixin of meglumine]
Number of surviving mice, 1 week (C57BL/6J mice; [2]): 0
Number of surviving mice, 6 hrs (C57BL/6J mice; [2]): 8
Number of surviving mice, 12 hrs (C57BL/6J mice; [2]): 8
Number of surviving mice, 18 hrs (C57BL/6J mice; [2]): 4
Number of surviving mice, 36 hrs (C57BL/6J mice; [2]): 0
Signs of shock at 12 hours, % of Animals (C57BL/6J mice): 100 % of Animals
Number of surviving mice, 1 week (C57BL/6J mice; [3]): 0
Number of surviving mice, 18 hrs (C57BL/6J mice; [3]): 0
Number of surviving mice, 36 hrs (C57BL/6J mice; [3]): 0

Compound: C[C@]12C=CC(=O)C=C1CC[C@@H]1[C@@H]2[C@@H](O)C[C@@]2(C)[C@H]1CC[C@]2(O)C(=O)CO [prednisolone]
Number of surviving mice, 1 week (C57BL/6J mice; [2]): 0
Number of surviving mice, 6 hrs (C57BL/6J mice; [2]): 8
Number of surviving mice, 12 hrs (C57BL/6J mice; [2]): 8
Number of surviving mice, 18 hrs (C57BL/6J mice; [2]): 3
Number of surviving mice, 36 hrs (C57BL/6J mice; [2]): 0
Signs of shock at 12 hours, % of Animals (C57BL/6J mice): 100 % of Animals
Number of surviving mice, 1 week (C57BL/6J mice; [3]): 0
Number of surviving mice, 18 hrs (C57BL/6J mice; [3]): 1
Number of surviving mice, 36 hrs (C57BL/6J mice; [3]): 0

Compound: IFN-γ: a Type II IFN, from Biosource International
GAPDH mRNA, % of Control at 0 Time (±15%) ([1]; 1 hr): 100 % of Control at 0 Time
IP-10 mRNA, % of Control at 0 Time (±15%) ([1]; 1 hr): 100 % of Control at 0 Time
MHC Class I mRNA, % of Control at 0 Time (±15%) ([1]; 1 hr): 100 % of Control at 0 Time
PKR mRNA, % of Control at 0 Time (±15%) ([1]; 1 hr): 100 % of Control at 0 Time
TLR3 mRNA, % of Control at 0 Time (±15%) ([1]; 1 hr): 100 % of Control at 0 Time
GAPDH mRNA, % of Control at 0 Time (±15%) ([1]; 3 hr): 100 % of Control at 0 Time
IP-10 mRNA, % of Control at 0 Time (±15%) ([1]; 3 hr): 100 % of Control at 0 Time
MHC Class I mRNA, % of Control at 0 Time (±15%) ([1]; 3 hr): 100 % of Control at 0 Time
PKR mRNA, % of Control at 0 Time (±15%) ([1]; 3 hr): 100 % of Control at 0 Time
TLR3 mRNA, % of Control at 0 Time (±15%) ([1]; 3 hr): 100 % of Control at 0 Time
GAPDH mRNA, % of Control at 0 Time (±15%) ([1]; 6 hr): 100 % of Control at 0 Time
IP-10 mRNA, % of Control at 0 Time (±15%) ([1]; 6 hr): 100 % of Control at 0 Time
MHC Class I mRNA, % of Control at 0 Time (±15%) ([1]; 6 hr): 100 % of Control at 0 Time
PKR mRNA, % of Control at 0 Time (±15%) ([1]; 6 hr): 100 % of Control at 0 Time
TLR3 mRNA, % of Control at 0 Time (±15%) ([1]; 6 hr): 100 % of Control at 0 Time
GAPDH mRNA, % of Control at 0 Time (±15%) ([1]; 12 hr): 100 % of Control at 0 Time
IP-10 mRNA, % of Control at 0 Time (±15%) ([1]; 12 hr): 100 % of Control at 0 Time
MHC Class I mRNA, % of Control at 0 Time (±15%) ([1]; 12 hr): 100 % of Control at 0 Time
PKR mRNA, % of Control at 0 Time (±15%) ([1]; 12 hr): 100 % of Control at 0 Time
TLR3 mRNA, % of Control at 0 Time (±15%) ([1]; 12 hr): 100 % of Control at 0 Time

Compound: IL-1β: cytokine used as positive control
increase of ELK1 transactivation (ERK1/2 MAPK, ELK1): 2 fold

increase of NF-κB mediated luciferase activity (NF-κB): 6 fold
Compound: Poly (I:C) [reference compound]
increase of ELK1 transactivation (ERK1/2 MAPK, ELK1): 2 fold
